Measurements from PMC5218480 (PLoS ONE, 2017).

Test system: MV-4-11 cells
Assay: Gene expression microarray analysis (Affymetrix PrimeView) and GSEA
Type: cell-based, human
Set-up: RFU PODN (11730768_x_at) / Fold change /veh PODN (11730768_x_at) / RFU LINC00158 (11744669_a_at) / Fold change /veh LINC00158 (11744669_a_at) / RFU DUSP10 (11751237_a_at) / Fold change /veh DUSP10 (11751237_a_at) / RFU ID3 (11757404_x_at) / Fold change /veh ID3 (11757404_x_at) / RFU PLEKHG5 (11737974_s_at) / Fold change /veh PLEKHG5 (11737974_s_at) / RFU LRRC4B (11730491_at) / Fold change /veh LRRC4B (11730491_at) / RFU GIMAP4 (11747438_a_at) / Fold change /veh GIMAP4 (11747438_a_at) / RFU KRT8 (11758183_x_at) / Fold change /veh KRT8 (11758183_x_at) / RFU CNN1 (11734310_a_at) / Fold change /veh CNN1 (11734310_a_at) / RFU VPS37D (11726825_at) / Fold change /veh VPS37D (11726825_at) / RFU C10orf10 (11716522_x_at) / Fold change /veh C10orf10 (11716522_x_at) / RFU KIR2DL2 /// KIR2DL4 /// KIR2DL5A /// KIR2DL5B /// KIR2DS1 /// KIR2DS2 /// KIR2DS3 /// KIR2DS4 /// KIR3DL3 /// KIR3DL3 /// KIR3DS1 (11738374_at) / Fold change /veh KIR2DL2 /// KIR2DL4 /// KIR2DL5A /// KIR2DL5B /// KIR2DS1 /// KIR2DS2 /// KIR2DS3 /// KIR2DS4 /// KIR3DL3 /// KIR3DL3 /// KIR3DS1 (11738374_at) / RFU C1QL1 (11718748_at) / Fold change /veh C1QL1 (11718748_at) / RFU TMPRSS4 (11747572_a_at) / Fold change /veh TMPRSS4 (11747572_a_at) / RFU HAMP (11756126_x_at) / Fold change /veh HAMP (11756126_x_at) / RFU RNFT2 (11725882_a_at) / Fold change /veh RNFT2 (11725882_a_at) / RFU NR4A2 (11747474_a_at) / Fold change /veh NR4A2 (11747474_a_at) / RFU ABCC12 (11746883_a_at) / Fold change /veh ABCC12 (11746883_a_at) / RFU TMEM136 (11760407_x_at) / Fold change /veh TMEM136 (11760407_x_at) / RFU CLDN22 /// WWC2 (11732394_at) / Fold change /veh CLDN22 /// WWC2 (11732394_at) / RFU HLA-DPB1 (11760878_x_at) / Fold change /veh HLA-DPB1 (11760878_x_at) / RFU SPINT1 (11716480_a_at) / Fold change /veh SPINT1 (11716480_a_at) / RFU GAP43 (11754022_s_at) / Fold change /veh GAP43 (11754022_s_at) / RFU A4GNT (11735810_at) / Fold change /veh A4GNT (11735810_at) / RFU PRB3 (11715151_x_at) / Fold change /veh PRB3 (11715151_x_at) / RFU TUBB4B (11761932_at) / Fold change /veh TUBB4B (11761932_at) / RFU CAPN14 (11732068_a_at) / Fold change /veh CAPN14 (11732068_a_at) / RFU TMCC2 (11721928_a_at) / Fold change /veh TMCC2 (11721928_a_at) / RFU IRGQ (11745062_a_at) / Fold change /veh IRGQ (11745062_a_at) / RFU FAM174B (11720279_a_at) / Fold change /veh FAM174B (11720279_a_at) / RFU TMPRSS4 (11748680_a_at) / Fold change /veh TMPRSS4 (11748680_a_at) / RFU FAM212B (11763350_a_at) / Fold change /veh FAM212B (11763350_a_at) / RFU PLEKHG5 (11743358_a_at) / Fold change /veh PLEKHG5 (11743358_a_at) / RFU ZSCAN30 (11745921_a_at) / Fold change /veh ZSCAN30 (11745921_a_at) / RFU CMKLR1 (11741424_a_at) / Fold change /veh CMKLR1 (11741424_a_at) / RFU LOC101060620 /// MAPK8IP1 (11723275_at) / Fold change /veh LOC101060620 /// MAPK8IP1 (11723275_at) / RFU SPTSSB (11747773_x_at) / Fold change /veh SPTSSB (11747773_x_at) / RFU PRSS12 (11739890_at) / Fold change /veh PRSS12 (11739890_at) / RFU BIN1 (11741810_x_at) / Fold change /veh BIN1 (11741810_x_at) / RFU WNT11 (11732464_a_at) / Fold change /veh WNT11 (11732464_a_at) / RFU C10orf10 (11716521_a_at) / Fold change /veh C10orf10 (11716521_a_at) / RFU C5orf56 (11738089_at) / Fold change /veh C5orf56 (11738089_at) / RFU CYB561 (11721691_x_at) / Fold change /veh CYB561 (11721691_x_at) / RFU ANKRD19P (11752326_a_at) / Fold change /veh ANKRD19P (11752326_a_at) / RFU OR2T12 /// OR2T33 /// OR2T8 (11738714_s_at) / Fold change /veh OR2T12 /// OR2T33 /// OR2T8 (11738714_s_at) / RFU VCAN (11748164_a_at) / Fold change /veh VCAN (11748164_a_at) / RFU JSRP1 (11732532_at) / Fold change /veh JSRP1 (11732532_at) / RFU KRTAP10-11 (11738290_x_at) / Fold change /veh KRTAP10-11 (11738290_x_at) / RFU MYO3A (11730013_a_at) / Fold change /veh MYO3A (11730013_a_at) / RFU EBF3 (11725865_a_at) / Fold change /veh EBF3 (11725865_a_at) / RFU CAMK2N1 (11719241_x_at) / Fold change /veh CAMK2N1 (11719241_x_at) / RFU C5orf56 (11738088_a_at) / Fold change /veh C5orf56 (11738088_a_at) / RFU OLFML3 (11715873_a_at) / Fold change /veh OLFML3 (11715873_a_at) / RFU LOC100653217 /// NTM (11731650_a_at) / Fold change /veh LOC100653217 /// NTM (11731650_a_at) / RFU MAPK11 (11762145_a_at) / Fold change /veh MAPK11 (11762145_a_at) / RFU FIZ1 (11724087_x_at) / Fold change /veh FIZ1 (11724087_x_at) / RFU OASL (11726364_x_at) / Fold change /veh OASL (11726364_x_at) / RFU SOX15 (11748057_x_at) / Fold change /veh SOX15 (11748057_x_at) / RFU CD79A (11719716_a_at) / Fold change /veh CD79A (11719716_a_at) / RFU HIST1H1D (11736915_at) / Fold change /veh HIST1H1D (11736915_at) / RFU CASKIN2 (11723855_a_at) / Fold change /veh CASKIN2 (11723855_a_at) / RFU LOC730098 (11760151_x_at) / Fold change /veh LOC730098 (11760151_x_at) / RFU OR4N2 (11742367_at) / Fold change /veh OR4N2 (11742367_at) / RFU PRRT2 (11749266_a_at) / Fold change /veh PRRT2 (11749266_a_at) / RFU SNX32 (11753110_a_at) / Fold change /veh SNX32 (11753110_a_at) / RFU CDHR5 (11726645_a_at) / Fold change /veh CDHR5 (11726645_a_at) / RFU RCAN1 (11760418_a_at) / Fold change /veh RCAN1 (11760418_a_at) / RFU FAM167A (11723789_a_at) / Fold change /veh FAM167A (11723789_a_at) / RFU FAM26E (11764081_at) / Fold change /veh FAM26E (11764081_at) / RFU ISYNA1 (11749810_s_at) / Fold change /veh ISYNA1 (11749810_s_at) / RFU ACY1 (11761880_at) / Fold change /veh ACY1 (11761880_at) / RFU 11764098_at / Fold change /veh 11764098_at / RFU SAMD14 (11745864_x_at) / Fold change /veh SAMD14 (11745864_x_at) / RFU NPB (11741838_a_at) / Fold change /veh NPB (11741838_a_at) / RFU TMPRSS6 (11731388_a_at) / Fold change /veh TMPRSS6 (11731388_a_at) / RFU KRTAP10-2 (11738614_at) / Fold change /veh KRTAP10-2 (11738614_at) / RFU ARHGAP8 /// PRR5-ARHGAP8 (11727945_x_at) / Fold change /veh ARHGAP8 /// PRR5-ARHGAP8 (11727945_x_at) / RFU KRTAP5-7 /// NADSYN1 (11734609_at) / Fold change /veh KRTAP5-7 /// NADSYN1 (11734609_at) / RFU RASL12 (11751679_a_at) / Fold change /veh RASL12 (11751679_a_at) / RFU CDKN2B (11736163_a_at) / Fold change /veh CDKN2B (11736163_a_at) / RFU PRF1 (11729649_at) / Fold change /veh PRF1 (11729649_at) / RFU, ZNF638 /// ZNF638-IT1 / Fold change vs veh, ZNF638 /// ZNF638-IT1 / RFU, PANK3 / Fold change vs veh, PANK3 / RFU, SH3YL1 / Fold change vs veh, SH3YL1 / RFU, ZEB2 / Fold change vs veh, ZEB2 / RFU, NRIP1 / Fold change vs veh, NRIP1 / RFU, PTTG1IP / Fold change vs veh, PTTG1IP / RFU, CAPN2 / Fold change vs veh, CAPN2 / RFU, MED14 / Fold change vs veh, MED14 / RFU, SNORA58 / Fold change vs veh, SNORA58 / RFU, C1orf63 / Fold change vs veh, C1orf63 / RFU, LRRFIP1 / Fold change vs veh, LRRFIP1 / RFU, NDUFAF7 / Fold change vs veh, NDUFAF7 / RFU, SLC12A2 / Fold change vs veh, SLC12A2 / RFU, IBTK / Fold change vs veh, IBTK / RFU, ESF1 / Fold change vs veh, ESF1 / Fold change vs veh, TMEM50B / RFU, TAOK1 / Fold change vs veh, TAOK1 / RFU, ACBD3 / Fold change vs veh, ACBD3 / RFU, TMA16 / Fold change vs veh, TMA16 / RFU, RWDD3 / Fold change vs veh, RWDD3 / RFU, BCAT1 / Fold change vs veh, BCAT1 / RFU, EDEM3 / Fold change vs veh, EDEM3 / RFU, TMEM33 / Fold change vs veh, TMEM33 / RFU, WDR75 / Fold change vs veh, WDR75 / RFU, AHCTF1 / Fold change vs veh, AHCTF1 / RFU, TFRC / Fold change vs veh, TFRC / RFU, ZDHHC17 / Fold change vs veh, ZDHHC17 / RFU, NOM1 / Fold change vs veh, NOM1 / RFU, ARL8B / Fold change vs veh, ARL8B / RFU, ZBTB11 / Fold change vs veh, ZBTB11 / RFU, TAMM41 / Fold change vs veh, TAMM41 / RFU, KIAA1704 /// LOC100996395 / Fold change vs veh, KIAA1704 /// LOC100996395 / RFU, ING1 / Fold change vs veh, ING1 / RFU, TRMT61B / Fold change vs veh, TRMT61B / RFU, FUBP3 / Fold change vs veh, FUBP3 / RFU, TP53 / Fold change vs veh, TP53 / RFU, TNKS2 / Fold change vs veh, TNKS2 / RFU, ZFP14 / Fold change vs veh, ZFP14 / RFU, ACTR2 / Fold change vs veh, ACTR2 / RFU, PPP3R1 / Fold change vs veh, PPP3R1 / RFU, PIK3R1 / Fold change vs veh, PIK3R1 / RFU, HNRNPA1 / Fold change vs veh, HNRNPA1 / RFU, RNF170 / Fold change vs veh, RNF170 / RFU, ZNF28 / Fold change vs veh, ZNF28 / RFU, RNGTT / Fold change vs veh, RNGTT / RFU, OGT / Fold change vs veh, OGT / RFU, BRD1 / Fold change vs veh, BRD1 / RFU, MARS / Fold change vs veh, MARS / RFU, ZNF655 / Fold change vs veh, ZNF655 / RFU, FAHD1 / Fold change vs veh, FAHD1 / RFU, BDP1 / Fold change vs veh, BDP1 / RFU, LRRCC1 / Fold change vs veh, LRRCC1 / RFU, ARID1A / Fold change vs veh, ARID1A / RFU, ZNF146 / Fold change vs veh, ZNF146 / RFU, ZNF330 / Fold change vs veh, ZNF330 / RFU, GPN3 / Fold change vs veh, GPN3 / RFU, C9orf123 / Fold change vs veh, C9orf123 / RFU, N4BP2L2 / Fold change vs veh, N4BP2L2 / RFU, ARFIP1 / Fold change vs veh, ARFIP1 / RFU, FAM179B / Fold change vs veh, FAM179B / RFU, BCL10 / Fold change vs veh, BCL10 / RFU, UHRF1BP1L / Fold change vs veh, UHRF1BP1L / RFU, BET1 / Fold change vs veh, BET1 / RFU, CNOT2 / Fold change vs veh, CNOT2 / RFU, ZNF268 / Fold change vs veh, ZNF268 / Fold change vs veh, ZNF507 / RFU, DGCR2 / Fold change vs veh, DGCR2 / RFU, WDSUB1 / Fold change vs veh, WDSUB1 / Fold change vs veh, HSP90B1 /// MIR3652 / RFU, ADSS / Fold change vs veh, ADSS / RFU, GK / Fold change vs veh, GK / RFU, ZNF148 / Fold change vs veh, ZNF148 / RFU, TAF9 / Fold change vs veh, TAF9 / RFU, SLC1A5 / Fold change vs veh, SLC1A5 / RFU, SLMO2 / Fold change vs veh, SLMO2 / RFU, ABCC4 / Fold change vs veh, ABCC4 / RFU, LOC101060439 /// RAP1B / Fold change vs veh, LOC101060439 /// RAP1B / RFU, RFX7 / Fold change vs veh, RFX7 / RFU, GTPBP10 / Fold change vs veh, GTPBP10 / RFU, CNEP1R1 / Fold change vs veh, CNEP1R1 / RFU, BIVM-ERCC5 /// ERCC5 / Fold change vs veh, BIVM-ERCC5 /// ERCC5 / RFU, ILF3 / Fold change vs veh, ILF3 / RFU 11762660_at / Fold change /veh 11762660_at / RFU VCAN (11757783_s_at) / Fold change /veh VCAN (11757783_s_at) / RFU DDX43 (11728927_at) / Fold change /veh DDX43 (11728927_at) / RFU KRT8 (11758188_x_at) / Fold change /veh KRT8 (11758188_x_at) / RFU NKD1 (11759106_at) / Fold change /veh NKD1 (11759106_at) / RFU SRD5A1 (11742802_a_at) / Fold change /veh SRD5A1 (11742802_a_at) / RFU TPSAB1 /// TPSB2 (11721975_s_at) / Fold change /veh TPSAB1 /// TPSB2 (11721975_s_at) / RFU GSTM3 (11746129_a_at) / Fold change /veh GSTM3 (11746129_a_at) / RFU IL23R (11737362_x_at) / Fold change /veh IL23R (11737362_x_at) / RFU TMEM51 (11727254_a_at) / Fold change /veh TMEM51 (11727254_a_at) / RFU PIWIL2 (11732686_x_at) / Fold change /veh PIWIL2 (11732686_x_at) / RFU ORM1 (11744905_x_at) / Fold change /veh ORM1 (11744905_x_at) / RFU CCDC152 (11743942_at) / Fold change /veh CCDC152 (11743942_at) / RFU ECM1 (11717891_a_at) / Fold change /veh ECM1 (11717891_a_at) / RFU IL23R (11748794_a_at) / Fold change /veh IL23R (11748794_a_at) / RFU TNFAIP8L3 (11732012_x_at) / Fold change /veh TNFAIP8L3 (11732012_x_at) / RFU MBOAT4 (11741988_at) / Fold change /veh MBOAT4 (11741988_at) / RFU 11764193_at / Fold change /veh 11764193_at / RFU TMEM53 (11763286_at) / Fold change /veh TMEM53 (11763286_at) / RFU MAGEB2 (11727129_at) / Fold change /veh MAGEB2 (11727129_at) / RFU TMEM200A (11744735_a_at) / Fold change /veh TMEM200A (11744735_a_at) / RFU CCDC152 (11751479_a_at) / Fold change /veh CCDC152 (11751479_a_at) / RFU FAM211A (11726209_a_at) / Fold change /veh FAM211A (11726209_a_at) / RFU RGS16 (11746705_a_at) / Fold change /veh RGS16 (11746705_a_at) / RFU VCAN (11755009_s_at) / Fold change /veh VCAN (11755009_s_at) / RFU RHOB (11743442_s_at) / Fold change /veh RHOB (11743442_s_at) / RFU RGS16 (11720943_a_at) / Fold change /veh RGS16 (11720943_a_at) / RFU RGS16 (11720944_at) / Fold change /veh RGS16 (11720944_at) / RFU, VPS4B / Fold change vs veh, VPS4B / RFU, CREB1 / Fold change vs veh, CREB1 / RFU, DNAJC13 / Fold change vs veh, DNAJC13 / RFU, GNAQ / Fold change vs veh, GNAQ / RFU, CDK5R1 / Fold change vs veh, CDK5R1 / RFU, ZRANB3 / Fold change vs veh, ZRANB3 / RFU, CUL4A / Fold change vs veh, CUL4A / RFU, CCNY / Fold change vs veh, CCNY / RFU, UFL1 / Fold change vs veh, UFL1 / RFU, COG3 / Fold change vs veh, COG3 / RFU, DIAPH2 / Fold change vs veh, DIAPH2 / RFU, SKA2 / Fold change vs veh, SKA2 / RFU, AFF3 / Fold change vs veh, AFF3 / RFU, LMF1 / Fold change vs veh, LMF1 / RFU, IPO11 / Fold change vs veh, IPO11 / RFU, DFFB / Fold change vs veh, DFFB / RFU, FOXP1 / Fold change vs veh, FOXP1 / RFU, CARD8 / Fold change vs veh, CARD8 / RFU, STRN3 / Fold change vs veh, STRN3 / RFU, ADK / Fold change vs veh, ADK / RFU, RASSF2 / Fold change vs veh, RASSF2 / RFU, WIPF1 / Fold change vs veh, WIPF1 / RFU, LARP1B / Fold change vs veh, LARP1B / RFU, RASA1 / Fold change vs veh, RASA1 / RFU, RB1 / Fold change vs veh, RB1 / RFU, PPFIA1 / Fold change vs veh, PPFIA1 / RFU, MAT2A / Fold change vs veh, MAT2A / RFU, CCT5 / Fold change vs veh, CCT5 / RFU, WDR92 / Fold change vs veh, WDR92 / RFU, CUX1 / Fold change vs veh, CUX1 / RFU, TTC7A / Fold change vs veh, TTC7A / RFU, TMEM135 / Fold change vs veh, TMEM135 / RFU, DEPTOR / Fold change vs veh, DEPTOR / RFU, CPM / Fold change vs veh, CPM / RFU, DNAJB6 / Fold change vs veh, DNAJB6 / RFU, CACNA2D3 / Fold change vs veh, CACNA2D3 / RFU, DTX4 / Fold change vs veh, DTX4 / RFU, TFCP2 / Fold change vs veh, TFCP2 / RFU, GMCL1 /// GMCL1P1 / Fold change vs veh, GMCL1 /// GMCL1P1 / RFU, AEBP2 / Fold change vs veh, AEBP2 / RFU, SNHG1 /// SNORD22 /// SNORD25 /// SNORD26 /// SNORD27 /// SNORD28 /// SNORD29 /// SNORD31 / Fold change vs veh, SNHG1 /// SNORD22 /// SNORD25 /// SNORD26 /// SNORD27 /// SNORD28 /// SNORD29 /// SNORD31 / Fold change (Aza/veh), C12orf56 (ProbeSet 11735607_a_at) / Fold change (ACY-1035/veh), C12orf56 (ProbeSet 11735607_a_at) / Fold change (Aza/veh), FGFR1OP (ProbeSet 11751329_s_at) / Fold change (ACY-1035/veh), FGFR1OP (ProbeSet 11751329_s_at) / Fold change (Aza/veh), VPS36 (ProbeSet 11739960_a_at) / Fold change (ACY-1035/veh), VPS36 (ProbeSet 11739960_a_at) / RFU SYPL1 (11715823_x_at) / Fold change /veh SYPL1 (11715823_x_at) / RFU IGFBP7 (11715501_s_at) / Fold change /veh IGFBP7 (11715501_s_at) / RFU REEP3 (11722064_at) / Fold change /veh REEP3 (11722064_at) / RFU IGLL1 (11728026_x_at) / Fold change /veh IGLL1 (11728026_x_at): dose or concentration left out as unconfirmed
Conditions: MV-4-11 cells, 48 hours

SMILES: Nc1ccc(-c2cccs2)cc1NC(=O)c1ccc2c(c1)cc(C1CC1)n2CCN1CCOCC1 [ACY-1035]
- RFU OR4N2 (11742367_at): 72.30 RFU
